The structures appear in SMILES notation.

This data set in a line: gradient 5% acetonitrile 3 min, to 50% in 2 min, to 85% in 15 min, held 3 min, 100 µL/min. To be noted: column: Zorbax Extend-C18 2.1 x 50 mm; eluents: water / acetonitrile, 0.1% formic acid. An outline of the steps:
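Retention times come from adduct peaks that were picked computationally and then checked by hand. The standards, pure and pooled in mixtures of ~100 molecules, were run on a Zorbax Extend-C18 column (2.1 × 50 mm, 1.8 μm) at 100 μL/min with water and acetonitrile, each with 0.1% formic acid. Detection was by quadrupole time-of-flight mass spectrometry in positive and negative ionization mode, with a dead volume of 40 μL and a dwell volume of 900 μL.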
For the compound `Cc1nc(-c2noc(-c3ccncc3)n2)cn1CC(=O)NCc1ccc(F)cc1`, the RP-LC retention time worked out at 885 s.
As for `COc1nn(C)cc1C(=O)Nc1cc(-c2cccs2)nn1CCO`, the figure is 630 s.
As for `CC1(C)CC(NC(=O)c2cccc(Br)c2)CC(C)(C)N1`, the figure is 620 s.
With `COC(=O)c1ccccc1NC(=O)Cn1c(-c2nonc2N)nc2ccccc21`, the RP-LC retention time came out at 993 s.
As for `C#CCCNC(=O)c1cccn(C)c1=O`, the RP-LC retention time was 572 s.
Next, `CCC(C)C(NC(=O)c1ccc(C(F)(F)F)cc1)C(=O)Nc1nc2ccccc2[nH]1` (stereo not given): 847 s.
As for `COc1ccc(CNC(=O)Cn2c(=O)cc(-c3nc(C)no3)c3ccccc32)cc1`, the figure is 810 s; as for `Cc1ccc(C)c(NS(=O)(=O)c2ccc3c(c2)C(=O)N(C)c2ncccc2O3)c1`, 970 s.
As for `CCOc1ccc(CNC(=O)c2cc(S(=O)(=O)N3CCCC3)c(C)n2C)cc1`, the figure is 902 s.
As to `Cc1noc([C@@H]2CN(C(=O)c3cc(C4CC4)[nH]n3)C[C@H]2C(N)=O)n1`, the RP-LC retention time was 596 s.
As for `Cc1nc(-c2cn(C(C)C)c3ncccc23)sc1C(=O)N1CCCCC1C` (stereo not given), the figure is 1030 s; as for `O=C(CCC1CCN(S(=O)(=O)c2ccccc2)CC1)NCC1CCCCC1`, 971 s.
`CNC(=O)c1ccsc1NC(=O)c1ccc(Cl)s1` yielded an RP-LC retention time of 882 s.
Next, `Cc1cc(C)n(Cc2nc(-c3ccc(NC(=O)c4ccco4)cc3)oc2C)n1`: 818 s.
Next, `O=C(CCc1nnn2c1CN(C(=O)Cc1c[nH]c3ccccc13)CC2)N1CCCC1`: 641 s; `CCOCc1nc(C2CCCN2C(=O)c2ccsc2)no1` (stereo not given): 724 s; `COc1ccc(CC(=O)N2CCn3c(C)nnc3C2)cc1OC`: 579 s.
Next, `Cc1nc2ccccc2c(=O)n1Cc1noc(C2CC(=O)N(c3ccccc3)C2)n1` (stereo not given): 722 s.
The compound `CC(=O)N1c2ccc(S(=O)(=O)N3CCCC3)cc2CC1C(=O)NCCN(C)C1CCCCC1` (stereo not given) gave an RP-LC retention time of 577 s.
As for `CCn1cc(CCNC(=O)CC2CCCC2)c2cccnc21`, the figure is 701 s.
With `Cc1nnc(-c2cc(C)n(CC(=O)Nc3ccc(C)c(Cl)c3)c2C)o1`, the RP-LC retention time came out at 852 s.
Next, `O=C(Nc1cnn(-c2ncc(N3CCCCC3)cn2)c1)NC1CCCC1`: 754 s; `CC(=O)Nc1c(C)noc1/C=C\c1ccc(S(=O)(=O)N2CCN(c3ncccn3)CC2)cc1`: 762 s.
Next, `Cc1cc(-n2cc(C(=O)N3CCC(NC(=O)Cc4cccs4)CC3)nn2)ccc1F`: 746 s.
On to `CC(C)(C)C(=O)Nc1ccc2nc(N3CCN(c4ccccc4Cl)CC3)cc(C(=O)O)c2c1`, for which the RP-LC retention time was found to be 750 s.
As for `O=c1ccn(-c2ccc(F)c(F)c2)nc1-c1nc(-c2cccc(F)c2)no1`, the figure is 923 s; as for `CN1CCN(C(=O)c2ccc(S(=O)(=O)c3ccccc3)s2)CC1`, 605 s; as for `CC(C)(C)c1ccc2c(c1)N(Cc1nc(-c3ccccc3Cl)no1)C(=O)CO2`, 1240 s.
Next, `CCn1cc(C(=O)Nc2ccc(C)c(F)c2)c2cccnc21`: 920 s; `O=C(c1ccc(Cl)cc1)N1CCc2nc(-c3ccc(Cl)cc3)ncc2C1`: 1140 s.
Next, `Cc1ccc(CNC(=O)N2CCCC(OCc3nc(C)no3)C2)cc1` (stereo not given): 770 s.
Regarding `CC(=O)N1CCc2sc(S(=O)(=O)NCc3ccc4c(c3)OCO4)cc2C1`, the RP-LC retention time worked out at 727 s.
Next, `Cc1cccc(Nc2c(-c3ccc(N(C)C)cc3)nc3cnccn23)c1C`: 900 s.
As for `CCCC(=O)N1CCc2c([nH]c3ccccc23)C12C(=O)Nc1ccc(Br)cc12` (stereo not given), the figure is 924 s; as for `Cc1cc2c(=O)n(CC(=O)Nc3cccc(Cl)c3)c3cccnc3n2n1`, 742 s; as for `Cn1nc(C(=O)N2CCCCC2)c2c1CCN(C(=O)CCC(=O)NCCN1CCCCC1)C2`, 586 s.
Next, `CC1CCC2(CC1)NC(=O)N(CC(=O)Nc1cccc(F)c1)C2=O` (stereo not given): 816 s; `CCCCc1ccc(N2C=C(C#N)S(=O)(=O)c3ccccc32)cc1`: 1150 s.
Regarding `Cc1noc(-c2ccc(-n3ncc(C(=O)NC4CC4)c3C)nc2)n1`, the RP-LC retention time stood at 709 s.
Regarding `O=C(Nc1cccc(Cl)c1)Nc1ncc(CCNc2ncnc3ccsc23)s1`, the RP-LC retention time worked out at 721 s.
Next, `CCC(=O)NCc1nc2c(n1CC)CN(C(=O)c1ccc(C(F)(F)F)cc1)CC2`: 614 s; `CCCCC(=O)O[C@]1(C(=O)CO)CC[C@H]2[C@@H]3CCC4=CC(=O)CC[C@]4(C)[C@H]3[C@@H](O)C[C@@]21C`: 1020 s; `COc1ccc(-c2ccc(=O)n(CCCNC(=O)c3ccc(S(N)(=O)=O)cc3)n2)cc1`: 812 s.
Next, `CC(C)n1c(=O)sc2cc(S(=O)(=O)N3CCC(C(=O)NCc4ccco4)CC3)ccc21`: 861 s.
Next, `O=C(c1nnc(-c2ccc(S(=O)(=O)N3CCOCC3)cc2)o1)N1CCC(Cc2ccccc2)CC1`: 1080 s; `Cc1ccc(NS(=O)(=O)c2cc3n(c2)CCN(CC(C)C)C3=O)cc1F`: 840 s; `CN1CCN(c2c(C(=O)c3ccccc3)cnc3cc4c(cc23)OCO4)CC1`: 560 s.
For `CCN1C(=O)C(C)(C(=O)Nc2ccc(F)cc2F)Oc2cccnc21` (stereo not given), the RP-LC retention time was 875 s.
In turn, `COCC(=O)N1CCC(Oc2nccnc2N(C)C)C1` (stereo not given) came in with an RP-LC retention time of 598 s.
As for `COc1ccccc1CCc1nc(C2CC(=O)N(C3CCCCC3)C2)no1` (stereo not given), the figure is 989 s; as for `Cc1oc2cc3oc(=O)c(CCC(=O)N4CCN(c5ccccn5)CC4)c(C)c3cc2c1C`, 682 s.
Next, `Nc1nnc(-c2ccc(Br)s2)o1`: 628 s; `COc1ccc(-c2noc(C3CC(=O)N(c4ccccc4)C3)n2)cc1OC` (stereo not given): 964 s.
As for `CCn1cc(C(=O)Nc2ccc(C)cc2)c2cccnc21`, the figure is 859 s; as for `Cc1cccc(S(=O)(=O)N2C[C@H](c3nc(-c4cccnc4)no3)[C@@H](C)C2)c1`, 914 s; as for `O=C1NCCCn2cc(S(=O)(=O)Nc3ccc(F)cc3)cc21`, 639 s.
In turn, `CCC(=O)N1CCc2cc(C)c(S(=O)(=O)NC3CCCC3)cc21` returned an RP-LC retention time of 869 s.
As for `COc1ccc(OCc2noc(CNC(=O)c3oc4cc(OC)ccc4c3C)n2)cc1`, the figure is 925 s; as for `O=C(O)C(Cc1c[nH]c2ccccc12)N1C(=O)c2ccccc2C1=O` (stereo not given), 858 s.
As for `Cc1ccc(NC(=O)Cn2nc(C)cc2C(=O)Nc2ccc3c(c2)OCCO3)cc1`, the figure is 834 s.

The record behind these values is the METLIN SMRT retention time set (Domingo-Almenara et al. 2019).
